Measurements from ChEMBL document CHEMBL1201862, “PubChem BioAssay data set” (2004).
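Briefly, cells in 96-well plates were exposed to five compound concentrations for 48 h, and endpoints were estimated by linear interpolation. GI50 = concentration required for 50% inhibition of growth.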 Active and inactive are the calls of the source. No stated cut-off is given here; in the data, active = GI50 up to about 1.1 µM and inactive = higher.

How the values were obtained:
Test in all cases: DTP human tumour cell line panel, 48 h
[1] = tested on: Hs-578T
[2] = tested on: A549
[3] = tested on: BT-549
[4] = tested on: T47D
[5] = tested on: TK-10
[6] = tested on: UACC-62
[7] = tested on: NCI-H460
[8] = tested on: SNB-75
[9] = tested on: KM12
[10] = tested on: SW-620
[11] = tested on: HL-60
[12] = tested on: A498
[13] = tested on: MDA-MB-435
[14] = tested on: UO-31
[15] = tested on: MDA-N

In the case of `c1nc2nc[nH]c(SSc3[nH]cnc4ncnc3-4)c-2n1`, the GI50 [1] is reported as 5.89 µM (inactive), the GI50 [2] is reported as 13.9 µM (inactive) and the GI50 [3] is reported as 14.1 µM (inactive). For the same molecule, the GI50 [4] was 2.64 µM (inactive), the GI50 [5] was < 0.0343 µM (active) and the GI50 [6] was < 0.01 µM (active). For the same molecule, the GI50 [7] was 2.65 µM (inactive), the GI50 [8] was 0.463 µM (active) and the GI50 [9] was 1.06 µM (active). The GI50 [10] was 0.824 µM (active), the GI50 [11] was 2.14 µM (inactive) and the GI50 [12] was 14.4 µM (inactive).
With `COc1nc(-c2cn(S(=O)(=O)c3ccc(C)cc3)c3ccc(Br)cc23)cc(C(F)(F)F)c1C#N` the GI50 [2] was > 100 µM (inactive), the GI50 [3] was 24.5 µM (inactive) and the GI50 [4] was 19.5 µM (inactive). For the same molecule, the GI50 [6] was 38.8 µM (inactive), the GI50 [13] was 81.1 µM (inactive) and the GI50 [7] was > 100 µM (inactive). For the same molecule, the GI50 [8] was 23.3 µM (inactive), the GI50 [9] was > 100 µM (inactive) and the GI50 [14] was 55 µM (inactive). For the same molecule, the GI50 [15] was > 100 µM (inactive), the GI50 [10] was 66.2 µM (inactive) and the GI50 [11] was 86.7 µM (inactive). For the same molecule, the GI50 [12] was 52.5 µM (inactive).
In the case of `COc1ccc(N2C(=O)CSC2c2c[nH]c3ccccc23)cc1` (stereo not drawn), the GI50 [3] is reported as 85.1 µM (inactive), the GI50 [4] is reported as > 100 µM (inactive) and the GI50 [5] is reported as 59.8 µM (inactive). For the same molecule, the GI50 [6] was 44.9 µM (inactive), the GI50 [13] was 41.5 µM (inactive) and the GI50 [7] was 32.4 µM (inactive). The GI50 [8] was > 100 µM (inactive), the GI50 [9] was 28.4 µM (inactive) and the GI50 [14] was 49.8 µM (inactive). The GI50 [15] was 35.2 µM (inactive), the GI50 [10] was > 100 µM (inactive) and the GI50 [11] was 23.6 µM (inactive).
For `Nc1ncnc2c1sc1nc3ccccc3n12`, the GI50 [1] was 12.2 µM (inactive), the GI50 [2] was > 49.1 µM (inactive) and the GI50 [3] was 80 µM (inactive). The GI50 [4] was > 100 µM (inactive), the GI50 [5] was > 100 µM (inactive) and the GI50 [6] was 31 µM (inactive). For the same molecule, the GI50 [13] was > 100 µM (inactive), the GI50 [7] was 53.1 µM (inactive) and the GI50 [9] was > 45 µM (inactive). For the same molecule, the GI50 [14] was > 77.8 µM (inactive), the GI50 [10] was > 100 µM (inactive) and the GI50 [12] was > 61.7 µM (inactive).
`O=C1CC(=O)N(c2ccccc2)N1/C(=C/c1ccccc1)c1ccccc1` was tested, and the GI50 [1] was 17.3 µM (inactive), the GI50 [2] was 26.1 µM (inactive) and the GI50 [3] was 23.6 µM (inactive). The GI50 [4] was 21.3 µM (inactive), the GI50 [5] was 21.3 µM (inactive) and the GI50 [6] was 16.3 µM (inactive). For the same molecule, the GI50 [13] was 18.9 µM (inactive), the GI50 [7] was 19.8 µM (inactive) and the GI50 [8] was 22 µM (inactive). For the same molecule, the GI50 [9] was 25.6 µM (inactive), the GI50 [14] was 15.7 µM (inactive) and the GI50 [15] was 13.6 µM (inactive). The GI50 [10] was 17.3 µM (inactive).
In the case of `CN1C(=O)[C@@H]2[C@@H]3c4ccccc4N[C@@H]3c3[nH]c4ccccc4c3[C@@H]2C1=O`, the GI50 [1] is reported as 28.3 µM (inactive), the GI50 [2] is reported as 22.8 µM (inactive) and the GI50 [3] is reported as 18.7 µM (inactive). For the same molecule, the GI50 [5] was 23.8 µM (inactive), the GI50 [6] was 14.5 µM (inactive) and the GI50 [13] was 23.3 µM (inactive). For the same molecule, the GI50 [7] was 15.3 µM (inactive), the GI50 [8] was 31.6 µM (inactive) and the GI50 [14] was 14.7 µM (inactive). For the same molecule, the GI50 [15] was 31.8 µM (inactive), the GI50 [10] was 29.2 µM (inactive) and the GI50 [12] was 25.4 µM (inactive).
For `Nc1c(Br)cc2c(c1Br)Cc1cc(Br)ccc1-2`, the GI50 [1] was > 100 µM (inactive), the GI50 [2] was > 100 µM (inactive) and the GI50 [4] was > 100 µM (inactive). For the same molecule, the GI50 [5] was > 100 µM (inactive), the GI50 [13] was > 100 µM (inactive) and the GI50 [7] was > 100 µM (inactive). For the same molecule, the GI50 [8] was > 100 µM (inactive), the GI50 [9] was > 100 µM (inactive) and the GI50 [14] was > 100 µM (inactive). For the same molecule, the GI50 [15] was > 100 µM (inactive), the GI50 [10] was > 100 µM (inactive) and the GI50 [12] was 0.968 µM (active).
`CCSc1nc(N)c2c(-c3ccccc3)c3c(nc2n1)CCC3` was tested, and the GI50 [1] was > 100 µM (inactive), the GI50 [2] was 4.56 µM (inactive) and the GI50 [3] was > 100 µM (inactive). The GI50 [4] was > 100 µM (inactive), the GI50 [5] was > 100 µM (inactive) and the GI50 [6] was > 100 µM (inactive). For the same molecule, the GI50 [13] was > 100 µM (inactive), the GI50 [7] was > 100 µM (inactive) and the GI50 [8] was > 100 µM (inactive). The GI50 [9] was > 100 µM (inactive), the GI50 [14] was 2.59 µM (inactive) and the GI50 [15] was > 100 µM (inactive). For the same molecule, the GI50 [10] was > 100 µM (inactive) and the GI50 [11] was > 100 µM (inactive).
`C[C@]12C[C@H](O)[C@H]3[C@@H](CCC4=CC(=O)CC[C@@]43C)[C@@H]1CC[C@@H]2c1csc(-c2ccccc2)n1` was tested, and the GI50 [1] was 30.1 µM (inactive), the GI50 [2] was 11.2 µM (inactive) and the GI50 [3] was > 100 µM (inactive). For the same molecule, the GI50 [4] was 3.15 µM (inactive), the GI50 [5] was 26.1 µM (inactive) and the GI50 [6] was 29.4 µM (inactive). The GI50 [13] was > 46.3 µM (inactive), the GI50 [7] was 5.85 µM (inactive) and the GI50 [8] was 26.4 µM (inactive). For the same molecule, the GI50 [9] was > 46.7 µM (inactive), the GI50 [15] was > 80.7 µM (inactive) and the GI50 [10] was 39.5 µM (inactive). For the same molecule, the GI50 [12] was > 39 µM (inactive).
With `CC(C)(Br)C(Br)CCC(C)(Br)C(Br)CO` (stereo not drawn) the GI50 [1] was > 10 µM (inactive), the GI50 [2] was > 10 µM (inactive) and the GI50 [3] was > 10 µM (inactive). For the same molecule, the GI50 [4] was > 10 µM (inactive), the GI50 [13] was > 10 µM (inactive) and the GI50 [8] was > 10 µM (inactive). For the same molecule, the GI50 [14] was > 10 µM (inactive), the GI50 [15] was > 10 µM (inactive) and the GI50 [10] was > 10 µM (inactive). For the same molecule, the GI50 [12] was > 10 µM (inactive).
For `COc1ccc(-c2c(C#N)c(N)nc3c2CCS(=O)(=O)c2ccccc2-3)cc1`, the GI50 [1] was 37.7 µM (inactive), the GI50 [2] was > 100 µM (inactive) and the GI50 [3] was > 100 µM (inactive). The GI50 [4] was > 100 µM (inactive), the GI50 [5] was > 100 µM (inactive) and the GI50 [6] was > 100 µM (inactive). For the same molecule, the GI50 [13] was > 100 µM (inactive), the GI50 [7] was > 100 µM (inactive) and the GI50 [8] was 38.5 µM (inactive). For the same molecule, the GI50 [9] was > 100 µM (inactive), the GI50 [14] was > 100 µM (inactive) and the GI50 [10] was > 100 µM (inactive). The GI50 [11] was > 100 µM (inactive) and the GI50 [12] was > 100 µM (inactive).
With `COc1ccccc1NC(=O)/C(Cc1nc2ccc([N+](=O)[O-])cc2nc1O)=N\NC(=O)C[N+](C)(C)C` the GI50 [1] was > 100 µM (inactive), the GI50 [2] was > 100 µM (inactive) and the GI50 [3] was > 100 µM (inactive). The GI50 [5] was > 100 µM (inactive), the GI50 [6] was 62.5 µM (inactive) and the GI50 [13] was 20 µM (inactive). For the same molecule, the GI50 [7] was 38.1 µM (inactive), the GI50 [8] was > 100 µM (inactive) and the GI50 [9] was 31.8 µM (inactive). For the same molecule, the GI50 [14] was 25.7 µM (inactive), the GI50 [15] was 14.9 µM (inactive) and the GI50 [10] was 48 µM (inactive). The GI50 [11] was 12.3 µM (inactive).
In the case of `O=C(N/N=C\C(F)(F)F)c1ccncc1`, the GI50 [1] is reported as 38.6 µM (inactive), the GI50 [3] is reported as > 100 µM (inactive) and the GI50 [5] is reported as 22.8 µM (inactive). For the same molecule, the GI50 [6] was 37.2 µM (inactive), the GI50 [13] was 9.59 µM (inactive) and the GI50 [7] was 19.9 µM (inactive). For the same molecule, the GI50 [8] was 32.2 µM (inactive), the GI50 [9] was 8.09 µM (inactive) and the GI50 [14] was 83.6 µM (inactive). For the same molecule, the GI50 [10] was 37.8 µM (inactive), the GI50 [11] was > 100 µM (inactive) and the GI50 [12] was 46.9 µM (inactive).
For `N/N=C1/C2CN3CCN(C2)CC1(c1ccc([N+](=O)[O-])cc1)C3`, the GI50 [1] was 14.7 µM (inactive), the GI50 [3] was > 100 µM (inactive) and the GI50 [5] was > 100 µM (inactive). For the same molecule, the GI50 [6] was > 100 µM (inactive), the GI50 [13] was > 100 µM (inactive) and the GI50 [8] was > 100 µM (inactive). The GI50 [9] was > 100 µM (inactive), the GI50 [14] was > 100 µM (inactive) and the GI50 [15] was > 100 µM (inactive). The GI50 [10] was > 100 µM (inactive), the GI50 [11] was > 100 µM (inactive) and the GI50 [12] was > 100 µM (inactive).
In the case of `O=C(/C=C/c1ccc(O)c(O)c1)O[C@H]1CCCC[C@@H]1OC(=O)/C=C/c1ccc(O)c(O)c1`, the GI50 [1] is reported as 29.9 µM (inactive), the GI50 [2] is reported as 11.7 µM (inactive) and the GI50 [3] is reported as 17.5 µM (inactive). The GI50 [4] was 16.2 µM (inactive), the GI50 [5] was 14.9 µM (inactive) and the GI50 [6] was 8.09 µM (inactive). The GI50 [13] was 8.83 µM (inactive), the GI50 [7] was 5.14 µM (inactive) and the GI50 [8] was 17.8 µM (inactive). For the same molecule, the GI50 [9] was 20.7 µM (inactive), the GI50 [14] was 7.03 µM (inactive) and the GI50 [15] was 8.87 µM (inactive). For the same molecule, the GI50 [10] was 3.52 µM (inactive) and the GI50 [12] was 22.3 µM (inactive).
